Test results from patent US20240239805A1, “AZA-YANG CYCLIZATION-BUCHNER AROMATIC RING EXPANSION: COLLECTIVE SYNTHESIS OF CYCLOHEPTATRIENE-CONTAINING AZETIDINE LACTONES” (University of Kansas, priority 2022, published 2024).

Test system: U-2 OS (ATCC, HTB-96) cells
Assay: Cell Painting: changes in cell morphology induced by synthesized compounds
Format: cell-based
Conditions: U-2 OS cells, 24-hour treatment; for Determination of bioactives: reproducibility of fingerprints and magnitude of the activity: Cell Painting feature vectors vs DMSO, 3 repeats, FIG. 8; for Clustering of fingerprints (similarity of fingerprints) with known bioactives: Cell Painting, cosine similarity, FIG. 9
Procedure: U-2 OS (ATCC, HTB-96) cells were cultured in T-75 flasks (Greiner, 658170) under McCoy's 5a medium (HIMedia, AT057), supplemented with 10% fetal bovine serum (FBS) and 1% Penicillin/Streptomycin solution, and incubated at 37° C. in a 5% CO2 atmosphere. Upon reaching 80% confluence, cells were washed, trypsinized (0.25% solution with EDTA, VWR, M143), and removed. Flasks were reseeded with one-fifth of the cell count for each passage. All cell plates reported in this paper were composed of U-2 OS from incubation lengths of five or fewer passages. 384 Black-welled plates with optically clear bottoms (Corning, 6569) were seeded with U-2 OS at a density of 1,000 cells per well and cells were allowed to incubate for 24 h to ensure adherence.
Three compound plates (Thermo Scientific, AB-1056) were constructed using an initial aliquot of a 50 mM compound solution solubilized in DMSO. Each compound aliquot was then twofold serially diluted in DMSO to yield eight concentrations ranging from 50 mM to 390 μM. This process was repeated so that compound plate 1 contained each of the 16 test (cycloheptatriene) compounds and one azetidinol, compound plate 2 contained 19 esters, and compound plate 3 contained the diazo compounds. Vehicle treatments were included in the plate design as DMSO-containing wells (around 200) with no added compound. Staurosporine diluted to 500 μM in DMSO was included on the plate as a positive control to test the transfer of compounds from pin transfer.
After a 24 h incubation period, untreated cell-containing plates and the compound plate were each fitted into a Library Copier, and a sterile Multi-Blot Replicator (V and P Scientific) was used to transfer a 100 nL volume from each well of the 384 well compound plate into the culture media (50 μL) of a corresponding well on the 384 well cell plate. These cell plates were reintroduced to a 37° C., 5% CO2 atmosphere for the duration of the 24-hour treatment period.
1 L of Hank's Buffered Saline Solution (HBSS) (1× from 10×) was prepared using 100 mL HBSS (10×) and diluted with 900 mL deionized water. The pH of the solution was adjusted to 7.2 with aqueous NaOH and filtered through a 0.2-micron filter. A 1% w/v solution of BSA (VWR, 0332) was prepared in 1×HBSS using 150 mg BSA, dissolved in 15 mL HBSS. The solution was filtered through a 0.2-micron filter. Live-cell MitoTracker (Thermo Fisher, M22426) staining solution was prepared using 6.5 μL of MitoTracker staining solution from a stock of 1 mM MitoTracker and dissolved in 13 mL of pre-warmed cell culture medium (RPMI) for a final concentration of 500 nM.
Staining dyes: a. […]

For `CC(C)(C)OC(=O)n1cc(C23C=CC=CC=C2[C@@]2(CN4CCCC[C@H]42)OC3=O)c2ccccc21` (stereo partly shown) [Compound 1-1-3], the “Determination of bioactives: reproducibility of fingerprints and magnitude of the activity” value was “showed reproducible fingerprints and magnitude of the activity”.
`O=C1O[C@]2(CN3CCCC[C@H]32)C2=CC=CC=C[C@@]12c1ccsc1` [Compound 1-1-4] was tested, and the “Determination of bioactives: reproducibility of fingerprints and magnitude of the activity” value was “showed reproducible fingerprints and magnitude of the activity”.
`CC(=O)O[C@H]1C(=O)[C@@]2(C)[C@H]([C@H](OC(=O)c3ccccc3)[C@]3(O)C[C@H](OC(=O)[C@H](O)[C@@H](NC(=O)c4ccccc4)c4ccccc4)C(C)=C1C3(C)C)[C@]1(OC(C)=O)CO[C@@H]1C[C@@H]2O` [taxol] was tested, and the “Clustering of fingerprints (similarity of fingerprints) with known bioactives” value was “cluster together”.
`CC[C@]1(O)C[C@H]2CN(CCc3c([nH]c4ccccc34)[C@@](C(=O)OC)(c3cc4c(cc3OC)N(C=O)[C@H]3[C@@](O)(C(=O)OC)[C@H](OC(C)=O)[C@]5(CC)C=CCN6CC[C@]43[C@@H]65)C2)C1` [vincristine] was tested, and the “Clustering of fingerprints (similarity of fingerprints) with known bioactives” value was “cluster together”.
